In patent publication US9133168B2, “Pyrimidine derivatives, preparation thereof, and pharmaceutical use thereof as akt(pkb) phosphorylation inhibitors” (SANOFI, priority 2010, dated 2015):

Tested on: AKT protein phosphorylated on serine 473 (P-AKT-S473) in PC3 human prostate carcinoma cells
Assay: pAKT expression in PC3 human prostate carcinoma cells, MSD Multi-spot Biomarker detection (Test A)
Format: cell-based
Experimental: The inhibitory activity of the molecules on AKT phosphorylation is measured using the MSD Multi-spot Biomarker detection technique from Meso Scale Discovery also described below. […] The primary antibody specific for […]) is coated on to an electrode in each well of the 96-well plates of the MSD kit: after the addition of a protein lysate to each well, the signal is visualized by adding a secondary detection antibody labeled with an electrochemiluminescent compound. The procedure followed is the one described in the kit. […] On day 2, the cells are incubated in the presence or absence of the test products for 1 to 2 h at 37° C. in the presence of 5% CO2. The molecules, diluted in dimethyl sulfoxide (DMSO Sigma #D2650), are added from a 20-times concentrated stock solution, the final percentage of DMSO being 0.1%. The molecules are tested either at a single concentration of less than or equal to 10 μM, or at increasing concentrations in a range that can extend from less than 1 nM to 10 μM. After this incubation, the cells are lysed for the preparation of the proteins. […] At this stage, the plates containing the lysates can be frozen at -20° C. or at -80° C. The wells of the 96 well plates of the MSD kit are saturated for 1 h at ambient temperature with the blocking solution of the MSD kit. Four washes are carried out with 150 μl of Tris Wash Buffer of the MSD kit. The lysates previously prepared are transferred into the 96-well multi-spot plates of the MSD kit and incubated for 1 h at ambient temperature, with shaking. Four washes are carried out with 150 μl of Tris Wash Buffer of the MSD kit. 25 μl of the MSD sulfo-tag detection antibody solution are added to the wells and incubated for 1 h at ambient temperature, with shaking. Four washes are carried out with 150 μl of Tris Wash Buffer of the MSD kit. 150 μl of Read Buffer of the MSD kit are added to the wells and the plates are read immediately on the S12400 instrument from Meso Scale Discovery. The instrument measures a signal for each well. Wells without cells and containing the lysis buffer serve to determine the background noise that will be subtracted from all the measurements (min). The wells containing cells in the absence of product and in the presence of 0.1% DMSO are considered to be the 100% signal (max). The percentage inhibition is calculated for each concentration of product tested, according to the following formula: (1-((test-min)/(max-min)))×100. […] Two independent experiments make it possible to calculate the mean of the IC50 values.

[1] = Homo sapiens, PC-3, PC3 cells, 1 to 2 h incubation, P-AKT-S473, absolute IC50, mean of two independent experiments
[2] = PC3 cells, 1 to 2 h incubation, P-AKT-S473, absolute IC50, mean of two independent experiments

IC50 [1] | IC50 [2] | Compound | other results
44 nM |  | C[C@H]1Cc2ccccc2N1C(=O)Cc1nc(N2CCOC(CF)C2)cc(=O)[nH]1 (stereo partly drawn) [Example 30b, 6-(2-fluoromethylmorpholin-4-yl)-2-[2-((S)-2-methyl-2,3-dihydroindol-1-yl)-2-oxoethyl]-3H-pyrimidin-4-one] | 
29 nM |  | CC(C(=O)N1CCc2c(F)cccc21)c1nc(N2CCOCC2)cc(=O)[nH]1 (stereo not shown) [Example 41c, 2-[1-(4-fluoro-2,3-dihydro-1H-indol-1-yl)-1-oxopropan-2-yl]-6-(morpholin-4-yl)pyrimidin-4(3H)-one] | 
 | 27 nM | CC1Cc2ccccc2N1C(=O)Cc1nc(N2CCOCC2)cc(=O)[nH]1 (single isomer, unassigned; (+)) [Example 21b, (+)-2-[2-(2-methyl-2,3-dihydroindol-1-yl)-2-oxoethyl]-6-morpholin(D8)-4-yl-3H-pyrimidin-4-one] | 
24 nM |  | CC1CN(c2cc(=O)[nH]c(CC(=O)N3c4ccccc4C[C@@H]3C)n2)CCO1 (single isomer, unassigned; (+)) [Example 29b] | 
2 nM |  | CC1Cc2c(ccc(F)c2Cl)N1C(=O)Cc1nc(N2CCOCC2)c(F)c(=O)[nH]1 (stereo not shown) [Example 34a, 5-Fluoro-2-[2-(4-chloro-5-fluoro-2-methyl-2,3-dihydroindol-1-yl)-2-oxoethyl]-6-morpholin-4-yl-3H-pyrimidin-4-one] | 
1140 nM |  | O=C(Cc1nc(N2CCOCC2)c(F)c(=O)[nH]1)N1c2ccccc2C[C@@H]1CO [Example 38a, 5-Fluoro-2-[2-((+)-2-hydroxymethyl-2,3-dihydroindol-1-yl)-2-oxoethyl]-6-morpholin-4-yl-3H-pyrimidin-4-one] | 
211 nM |  | CC1Cc2cc(F)c(F)cc2N1C(=O)Cc1nc(N2CCOCC2)c(F)c(=O)n1C (stereo not drawn) [Example 26a, 5-fluoro-2-[2-((+)-5,6-difluoro-2-methyl-2,3-dihydroindol-1-yl)-2-oxoethyl]-3-methyl-6-morpholin-4-yl-3H-pyrimidin-4-one] | 
 | 39 nM | CC1Cc2c(Br)cccc2N1C(=O)Cc1nc(N2CCOCC2)cc(=O)[nH]1 (single isomer, unassigned; (+)) [Example 25c, (+)-2-{2-[4-bromo-2-methyl-2,3-dihydro-1H-indol-1-yl]-2-oxoethyl}-6-(morpholin-4-yl)pyrimidin-4(3H)-one] | 
 | 476 nM | CC1Cc2c(Cl)cccc2N1C(=O)Cc1nc(N2CCOCC2)c(F)c(=O)n1C (stereo not drawn) [Example 28a, 5-fluoro-2-[2-((+)-4-chloro-2-methyl-2,3-dihydroindol-1-yl)-2-oxoethyl]-3-methyl-6-morpholin-4-yl-3H-pyrimidin-4-one] | 
 | 98 nM | CC1Cc2c(F)cccc2N1C(=O)Cc1nc(N2CCOCC2)cc(=O)[nH]1 (single isomer, unassigned; (+)) [Example 28c, (+)-2-{2-[4-fluoro-2-methyl-2,3-dihydro-1H-indol-1-yl]-2-oxoethyl}-6-(morpholin-4-yl)pyrimidin-4(3H)-one] | 
 | 77 nM | CC1Cc2ccc(F)cc2N1C(=O)Cc1nc(N2CCOCC2)c(F)c(=O)[nH]1 (stereo not drawn) [Example 33a, 5-Fluoro-2-[2-((+)-6-fluoro-2-methyl-2,3-dihydroindol-1-yl)-2-oxoethyl]-6-morpholin-4-yl-3H-pyrimidin-4-one] | 
 | 380 nM | CCC1Cc2ccccc2N1C(=O)Cc1nc(N2CCOCC2)cc(=O)[nH]1 (single isomer, unassigned; (+)) [Example 42c, (+)-2-[2-(2-ethyl-2,3-dihydroindol-1-yl)-2-oxoethyl]-6-morpholin-4-yl-3H-pyrimidin-4-one] | 

The next lines start with the compound.

Compound | IC50 [1] | IC50 [2] | other results
CC1Cc2c(Cl)cccc2N1C(=O)Cc1nc(N2CCOCC2)cc(=O)[nH]1 (single isomer, unassigned; (+)) [Example 2c, (+)-2-{2-[4-chloro-2-methyl-2,3-dihydro-1H-indol-1-yl]-2-oxoethyl}-6-(morpholin-4-yl)pyrimidin-4(3H)-one] |  | 5 nM | 
CC1Cc2c(ccc(F)c2F)N1C(=O)Cc1nc(N2CCOCC2)cc(=O)[nH]1 (single isomer, unassigned; (+)) [Example 17c, (+)-2-{2-[4,5-difluoro-2-methyl-2,3-dihydro-1H-indol-1-yl]-2-oxoethyl}-6-(morpholin-4-yl)pyrimidin-4(3H)-one] |  | 4 nM | 
O=C(Cc1nc(N2CCOC3CCCC32)cc(=O)[nH]1)N1CCc2c(F)cccc21 (stereo not shown) [Example 11b, 2-[2-(4-fluoro-2,3-dihydroindol-1-yl)-2-oxoethyl]-6-(hexahydrocyclopenta[1,4]oxazin-4-yl)-3H-pyrimidin-4-one] | 12 nM |  | 
C[C@H]1Cc2ccccc2N1C(=S)Cc1nc(N2CCOCC2)cc(=S)[nH]1 [Example 2e, 2-[2-((S)-2-methyl-2,3-dihydroindol-1-yl)-2-thioxoethyl]-6-morpholin-4-yl-3H-pyrimidine-4-thione] | 4 nM |  | 
CC1Cc2cc(F)ccc2N1C(=O)Cc1nc(N2CCOCC2)cc(=O)[nH]1 (single isomer, unassigned; (+)) [Example 13c, (+)-2-{2-[5-fluoro-2-methyl-2,3-dihydro-1H-indol-1-yl]-2-oxoethyl}-6-(morpholin-4-yl)pyrimidin-4(3H)-one] |  | 5 nM | 
Cn1c(CC(=O)N2CCc3c2cccc3C(F)(F)F)nc(N2CCOCC2)cc1=O [Example 4d, 3-methyl-6-(morpholin-4-yl)-2-{2-oxo-2-[4-(trifluoromethyl)-2,3-dihydro-1H-indol-1-yl]ethyl}pyrimidin-4(3H)-one] | 63 nM |  | 
[2H]C1([2H])COCC([2H])([2H])N1c1cc(=O)[nH]c(CC(=O)N2CC(C)(C)c3ccccc32)n1 [Example 18b, 2-[2-(3,3-dimethyl-2,3-dihydroindol-1-yl)-2-oxoethyl]-6-morpholin(D4)-4-yl-3H-pyrimidin-4-one] | 91 nM |  | 
CC1Cc2c(Cl)cccc2N1C(=O)Cc1nc(N2CCOCC2)c(F)c(=O)[nH]1 (stereo not shown) [Example 19a] |  | 19 nM | 
C[C@H]1Cc2ccccc2N1C(=O)Cc1nc(N2CCOCC2)c(F)c(=O)n1C [Example 8a, 5-fluoro-3-methyl-2-{2-[(2S)-2-methyl-2,3-dihydro-1H-indol-1-yl]-2-oxoethyl}-6-(morpholin-4-yl)pyrimidin-4(3H)-one] | 107 nM |  | 
CC1(C)CN(C(=O)Cc2nc(N3CCOCC3)cc(=O)[nH]2)c2cccc(Cl)c21 [Example 5c, 2-[2-(4-chloro-3,3-dimethyl-2,3-dihydro-1H-indol-1-yl)-2-oxoethyl]-6-(morpholin-4-yl)pyrimidin-4(3H)-one] | 14 nM |  | 
C[C@H]1Cc2ccccc2N1C(=O)Cc1nc(N2CCOCC2)cc(=S)[nH]1 [Example 1e, 1-((S)-2-methyl-2,3-dihydroindol-1-yl)-2-(4-morpholin-4-yl-6-thioxo-1,6-dihydropyrimidin-2-yl)ethanone] | 22 nM |  | 
CN1CCN(Cc2cccc3c2CCN3C(=O)Cc2nc(N3CCOCC3)cc(=O)n2C)CC1 [Example 20d, 3-methyl-2-(2-{4[(4-methylpiperazin-1-yl)methyl]-2,3-dihydro-1H-indol-1-yl}-2-oxoethyl)-6-(morpholin-4-yl)pyrimidin-4(3H)-one] | 520 nM |  | 
Cn1c(CC(=O)Nc2ccc(F)c(Cl)c2)nc(N2CCOC(CF)C2)cc1=O (single isomer, unassigned; (+)) [Example 5b, (+)-N-(3-chloro-4-fluorophenyl)-2-[4-(2-fluoromethylmorpholin-4-yl)-1-methyl-6-oxo-1,6-dihydropyrimidin-2-yl]acetamide] |  |  | IC50 (Homo sapiens, PC-3): 127 nM
